According to patent US8618107B2 (Gilead Connecticut, Inc., priority 2010, dated 2013):

How the values were obtained:
[1] = system: CD69 on CD20 positive cells in human whole blood stimulated by anti-IgM; assay: CD69 Whole Blood Assay; type: cell-based; details: anti-human IgM stimulation, 20 hours
Method: Human blood is obtained from healthy volunteers, with the following restrictions: 1 week drug-free, non-smokers. Blood (approximately 20 mls to test 8 compounds) is collected by venipuncture into Vacutainer® (Becton, Dickinson and Co.) tubes with sodium heparin.
Solutions of Formula I compounds at 10 mM in DMSO are diluted 1:10 in 100% DMSO, then are diluted by three-fold serial dilutions in 100% DMSO for a ten point dose-response curve. The compounds are further diluted 1:10 in PBS and then an aliquot of 5.5 μl of each compound is added in duplicate to a 2 ml 96-well plate; 5.5 μl of 10% DMSO in PBS is added as control and no-stimulus wells. Human whole blood—HWB (100 μl) is added to each well. After mixing the plates are incubated at 37° C., 5% CO2, 100% humidity for 30 minutes. Goat F(ab′)2 anti-human IgM (10 μl of a 500 μg/ml solution, 50 μg/ml final) is added to each well (except the no-stimulus wells) with mixing and the plates are incubated for an additional 20 hours. At the end of the 20 hour incubation, samples are incubated with fluorescent labeled antibodies for 30 minutes, at 37° C., 5% CO2, 100% humidity. Include induced control, unstained and single stains for compensation adjustments and initial voltage settings. Samples are then lysed with PharM Lyse™ (BD Biosciences Pharmingen) according to the manufacturer's instructions. Samples are then transferred to a 96 well plate suitable to be run on the BD Biosciences HTS 96 well system on the LSRII machine. Data acquired and Mean Fluorescence Intensity values were obtained using BD Biosciences DIVA Software. Results are initially analyzed by FACS analysis software (Flow Jo). […] The IC50 values are calculated by Prism version 5, using a nonlinear regression curve fit.

[2] = system: CD86 surface expression on CD19+/7AAD- mouse splenocytes stimulated with IgM; assay: CD86 Inhibition Assay; type: cell-based; details: Splenocyte; total mouse splenocytes (Balb/c), IgM stimulation 24 hr
Method: Following the 24 hr incubation, cells are transferred to conical bottom clear 96-well plates and pelleted by centrifugation at 1200×g×5 min. […] Cells are sorted on a BD FACSCalibur and gated on the CD19^+/7AAD^− population. The levels of CD86 surface expression on the gated population is measured versus test compound concentration.

IC50 [1] [nM] | Compound | EC50 [2] [nM]
44 | CN1CCCC1c1ccc(Nc2cc(-c3cc(F)cc(N4CCc5c(sc6c5CCCC6)C4=O)c3CO)cn(C)c2=O)nc1 (stereo in doubt) [Example 313, 5-[5-Fluoro-2-(hydroxymethyl)-3-(1-methyl-5-{[5-(2S)-(1-methylpyrrolidin-2-yl)pyridine-2-yl]amino}-6-oxo-1,6-dihydropyridin-3-yl)phenyl]-8-thia-5-azatricyclo[7.4.0.0^2,7]trideca-1(9),2(7)-dien-6-one] | 6
24 | CN1CCC(c2ccc(Nc3cc(-c4cccc(N5CCc6c(sc7c6CC(C)(C)C7)C5=O)c4CO)cn(C)c3=O)nc2)CC1 [Example 325, 10-[2-(Hydroxymethyl)-3-(1-methyl-5-{[5-(1-methylpiperidin-4-yl)pyridine-2-yl]amino}-6-oxopyridin-3-yl)phenyl]-4,4-dimethyl-7-thia-10-azatricyclo[6.4.0.0^2,6]dodeca-1(8),2(6)-dien-9-one] | –

Compound | IC50 [1] [nM] | EC50 [2] [nM]
CN1CCN(c2ccc(Nc3cc(-c4cc(F)cc(N5CCn6c(cc7c6CCCC7)C5=O)c4CO)cn(C)c3=O)nc2)CC1 [Example 197, 2-(5-fluoro-2-(hydroxymethyl)-3-(1-methyl-5-(5-(4-methylpiperazin-1-yl)pyridin-2-ylamino)-6-oxo-1,6-dihydropyridin-3-yl)phenyl)-3,4,6,7,8,9-hexahydropyrazino[1,2-a]indol-1(2H)-one] | 23 | 22
